Measurements taken from the supplement of paper PMC10307832.

Legend:
Experiment in all cases: relative viability (nuclei count vs DMSO), 5 days (fraction); higher = more cells survive
Mirin + Palbociclib = compound: N=C1NC(=O)/C(=C/c2ccc(O)cc2)S1 [Mirin] + CC(=O)c1c(C)c2cnc(Nc3ccc(N4CCNCC4)cn3)nc2n(C2CCCC2)c1=O [Palbociclib] (partner 0.5 µM)
How it was run: (§1)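 Lung cancer cell lines in 1536-well plates got either a single drug or a fixed anchor-drug dose together with five library-drug doses (not always all listed) in √10 steps, by pin tool, on the day after seeding. Nuclei were counted after 5 days, and relative viability is the treated-to-vehicle ratio of nuclei counts. Values are medians of duplicate plates.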

[1] = compound: CCn1c(-c2nonc2N)nc2cnc(Oc3cccc(NC(=O)c4ccc(OCCN5CCOCC5)cc4)c3)cc21 + C[C@]1(O)C[C@@H](c2nc(-c3ccc4ccc(-c5ccccc5)nc4c3)c3c(N)nccn32)C1 [Linsitinib] (partner 1 µM)
How it was run: as §1

[2] = compound: CCn1c(-c2nonc2N)nc2cnc(Oc3cccc(NC(=O)c4ccc(OCCN5CCOCC5)cc4)c3)cc21 + CS(=O)(=O)N1CCN(Cc2cc3nc(-c4cccc5[nH]ncc45)nc(N4CCOCC4)c3s2)CC1 [Pictilisib] (partner 1 µM)
How it was run: as §1

Mirin + Pemetrexed = compound: N=C1NC(=O)/C(=C/c2ccc(O)cc2)S1 [Mirin] + Nc1nc2[nH]cc(CCc3ccc(C(=O)N[C@@H](CCC(=O)O)C(=O)O)cc3)c2c(=O)[nH]1 [Pemetrexed] (partner 0.2 µM)
How it was run: as §1

Cell Line	relative viability (Mirin + Palbociclib; first compound 0.25 µM)	relative viability (Mirin + Palbociclib; first compound 0.7906 µM)	relative viability (Mirin + Palbociclib; first compound 2.5 µM)	relative viability (Mirin + Palbociclib; first compound 7.906 µM)	relative viability (Mirin + Palbociclib; first compound 25 µM)	relative viability ([1]; first compound 0.04 µM)	relative viability ([1]; first compound 0.1265 µM)	relative viability ([1]; first compound 0.4 µM)	relative viability ([1]; first compound 1.265 µM)	relative viability ([1]; first compound 4 µM)	relative viability ([2]; first compound 0.04 µM)	relative viability ([2]; first compound 0.1265 µM)	relative viability ([2]; first compound 0.4 µM)	relative viability ([2]; first compound 1.265 µM)	relative viability ([2]; first compound 4 µM)	relative viability (Mirin + Pemetrexed; first compound 0.25 µM)	relative viability (Mirin + Pemetrexed; first compound 0.7906 µM)	relative viability (Mirin + Pemetrexed; first compound 2.5 µM)	relative viability (Mirin + Pemetrexed; first compound 7.906 µM)	relative viability (Mirin + Pemetrexed; first compound 25 µM)
HOP-62	0.465	0.536	0.46	0.381	0.458	1.22	1.27	0.808	0.595	1.02	0.88	0.757	0.599	0.535	0.433	0.36	0.286	0.316	0.288	0.361
HCC-366	0.35	0.39	0.405	0.404	0.366	0.435	0.64	0.597	0.0751	0.0223	0.124	0.151	0.0942	0.0463	0.0657	0.178	0.251	0.177	0.167	0.218
NCI-H2405	0.512	–	0.526	0.568	0.511	0.955	0.568	0.417	0.31	0.263	0.454	0.23	0.15	0.261	0.171	1.1	–	1.16	1.14	1.07
LXF-289	0.585	0.648	0.591	0.623	0.701	1.08	1.06	0.955	0.978	0.973	0.923	0.761	0.539	0.56	0.516	0.902	0.856	0.923	0.791	0.821
NCI-H1793	0.331	–	0.349	0.335	0.339	0.572	0.801	0.915	0.715	0.513	0.336	0.413	0.295	0.312	0.328	0.862	–	0.895	1.11	0.977
LU99A	0.412	0.339	0.425	0.358	0.339	0.56	0.458	0.507	0.539	0.565	0.392	0.322	0.192	0.317	0.214	0.159	0.204	0.186	0.137	0.17
PC-3 [JPC-3]	0.596	0.574	0.551	0.524	0.631	0.945	1	0.969	0.968	0.947	0.919	0.775	0.68	0.723	0.714	1.11	1.03	1.22	1.2	1.29
NCI-H2085	0.458	0.47	0.495	0.562	0.486	1.02	0.9	0.756	0.792	0.683	0.53	0.692	0.664	0.596	0.524	0.919	1.03	0.932	0.925	0.932
HCC-78	0.536	0.41	0.453	0.505	0.381	0.673	0.498	0.551	0.664	0.621	0.3	0.311	0.208	0.262	0.367	0.952	0.882	0.882	0.903	0.871
NCI-H1395	0.588	–	0.594	0.69	0.581	1.25	0.931	1.04	0.502	0.616	0.795	0.508	0.491	0.384	0.536	0.898	–	0.847	0.829	0.618
NCI-H2228	0.863	0.704	0.799	0.647	0.622	1.3	0.912	0.906	0.992	0.51	0.607	0.3	0.229	0.605	0.254	0.394	0.301	0.291	0.315	0.364
H3255	0.308	0.309	0.298	0.323	0.328	1.2	0.952	0.99	0.62	0.768	0.63	0.593	0.517	0.473	0.52	0.525	0.605	0.626	0.54	0.571
HCC-15	0.739	0.712	0.677	0.674	0.737	1.15	0.88	0.901	0.825	0.883	0.955	0.718	0.701	0.664	0.744	0.217	0.233	0.218	0.196	0.203
NCI-H2009	0.221	0.262	0.162	0.202	0.238	1.01	0.99	0.999	0.701	0.423	0.971	0.774	0.629	0.461	0.348	1.05	1.11	1.01	0.964	1.16
HCC-44	1	1.1	0.91	0.975	1.15	0.671	0.709	0.684	0.538	0.509	0.557	0.529	0.276	0.236	0.244	0.604	0.835	0.677	0.633	0.694
COR-L23	0.369	0.299	0.245	0.268	0.341	1	0.785	0.521	0.172	0.148	1.02	0.68	0.238	0.197	0.192	0.2	0.204	0.209	0.187	0.204
EMC-BAC-2	0.485	0.515	0.52	0.4	0.502	1.03	0.839	0.814	0.834	0.877	0.655	0.517	0.395	0.382	0.339	0.475	0.431	0.452	0.375	0.41
LCLC-103H	0.421	0.518	0.515	0.458	0.451	1.12	1.07	0.902	1.05	1.03	0.764	0.596	0.435	0.455	0.576	0.441	0.523	0.487	0.425	0.435
LK-2	0.538	–	0.774	0.463	0.188	0.522	0.691	0.572	0.342	0.74	0.711	0.777	0.615	0.255	0.392	0.129	–	0.257	0.164	0.257
NCI-H3122	0.192	0.197	0.199	0.166	0.165	1.04	0.985	0.991	1	0.934	0.879	0.672	0.516	0.674	0.542	0.195	0.213	0.209	0.208	0.264
NCI-H2126	0.342	0.361	0.332	0.394	0.396	0.759	0.704	0.679	0.759	0.742	0.568	0.525	0.461	0.567	0.649	0.754	0.574	0.758	0.855	0.686
NCI-H520	0.214	0.267	0.245	0.188	0.138	1.07	1.15	1.12	0.565	0.415	0.326	0.31	0.256	0.265	0.182	0.654	0.591	0.7	0.545	0.449
LOU-NH91	0.548	0.569	0.529	0.519	0.555	1	0.748	0.744	0.632	0.611	0.61	0.613	0.484	0.475	0.495	0.375	0.389	0.357	0.399	0.376
NCI-H1651	0.477	0.561	0.53	0.497	0.516	1.15	1.1	0.986	0.859	0.642	0.762	0.667	0.456	0.486	0.345	0.241	0.532	0.599	0.532	0.612
NCI-H460	0.18	0.148	0.157	0.157	0.123	1.35	0.794	0.513	0.144	0.135	0.462	0.404	0.207	0.122	0.182	0.0601	0.0695	0.0719	0.0635	0.0557
